Counter-ions that a name gives are not always drawn. Marks after values point to notes of the source that are not given here.
How the values were obtained:
male Ross 308 chicks [1] = experiment: Mortality/cull rates to 37 days post-hatch; conditions: phytase 500 FTU/kg, betaine 2.75 g/kg
Procedure: (§1) The composition and nutrient specifications of the three basal starter (1-16 days post-hatch) and finisher (17-37 days post-hatch) diets are shown in Table 1. An NSP-degrading enzyme (Econase XT) was included across all the wheat-based diets to reflect standard practice and the finisher diets contained 20 g/kg Celite as an acid insoluble ash dietary marker. The starter diets were fed as mash, while the finisher diets were steam-pelleted at a conditioning temperature of 85° C. The NC1 diets were the ‘phytase-modified’ diets with formulated with reductions of 1.4 g/kg Ca and 1.5 g/kg P in the starter diets, which mainly stemmed from the elimination of dicalcium phosphate. The corresponding reductions in the finisher diets were 1.2 g/kg Ca and 1.4/kg P. The NC2 diets were the ‘betaine-modified’ diets in which energy density, methionine and choline levels were reduced mainly by lower inclusion levels of canola oil and synthetic methionine and the elimination of choline chloride relative to the PC diets. The energy densities were reduced from 12.55 to 12.24 MJ/kg in the starter diets and from 12.97 to 12.66 MJ/kg in the finisher diets. Methionine levels were reduced from 4.44 to 3.19 g/kg in the starter diets and from 4.18 to 2.93 g/kg in the finisher diets. Exogenous phytase (Quantum® Blue; AB Vista) was included in the relevant diets at 100 g per tonne or 500 FTU/kg phytase activity and, similarly, betaine HCl (Hi Beta″, 970 g/kg betaine hydrochloride; Rural Chemical Industries) was included in the diets at 2.75 g/kg.
(§2) The parameters evaluated included growth performance (weight gains, feed intakes, feed conversion ratios; FCR) from 1 to 16, 17 to 37 and 1 to 37 days post-hatch, 1 to 37 days weight gain-corrected FCR, mortality/cull rates, percentage toe ash, nitrogen (N) excretion and nutrient utilisation. Nutrient utilisation included apparent metabolisable energy (AME), expressed as both MJ/kg and MJ/day, N retention and N-corrected AME (AMEn). Also, breast weights in absolute and relative (% yield) terms, abdominal fat pad weights and pH of gizzard contents were determined. However, for reasons of practical expediency, absolute breast weights were determined on a ‘bone-in’ basis from birds that had not been de-feathered and this approach inflates both the absolute weight and yield; nevertheless, the data remains indicative. The experimental data was obtained and calculated via standard procedures followed by the Poultry Research Foundation. While the various procedures are not detailed in this report the majority of them have been described in detail (Selle et al., 2003b) previously.
The experimental data was statistically analysed as a 3×2×2 factorial array of dietary treatments. […]

male Ross 308 chicks [2] = experiment: Growth performance of broilers (weight gain, feed intake, feed conversion); assay type: in vivo, broiler chicks; conditions: for Feed efficiency: feed conversion ratio; for Feed efficiency / Feed intake / Weight gain / Gain-corrected FCR: phytase 500 FTU/kg, betaine 2.75 g/kg
Procedure: as §1, §2
(§3) The experimental data was statistically analysed as a 3×2×2 factorial array of dietary treatments. That is diet type (PC, NC1, NC2), without and with the addition of phytase, without and with the addition of betaine HCl. Each of the 12 dietary treatments was offered to 8 replicate cages of 6 birds or a total of 96 cages and 576 birds (male Ross 308 chicks). The IBM® SPSS® Statistics 20 program was used to analyse experimental data and the study complied with specific guidelines of the Animal Ethics Committee of Sydney University.

male Ross 308 chicks [3] = experiment: N excretion during total excreta collection period; assay type: in vivo, broiler chicks; conditions: for N excretion: total excreta collection period, phytase 500 FTU/kg, betaine 2.75 g/kg
Procedure: as §1, §2, §3

[4] = NC1 diets, 1 to 16 days post-hatch
[5] = NC1 diets, 1 to 37 days post-hatch
[6] = NC1 diets, 17 to 37 days post-hatch
[7] = NC2 diets, 1 to 16 days post-hatch
[8] = NC2 diets, 1 to 37 days post-hatch
[9] = NC2 diets, 17 to 37 days post-hatch
[10] = PC diets, 1 to 16 days post-hatch
[11] = PC diets, 1 to 37 days post-hatch
[12] = PC diets, 17 to 37 days post-hatch
[13] = main effect across diets, 1 to 16 days post-hatch
[14] = main effect across diets, 1 to 37 days post-hatch
[15] = main effect across diets, 17 to 37 days post-hatch
[16] = main effect, 17 to 37 days (finisher phase)

For `C[N+](C)(C)CC(=O)O` [Betaine, betaine hydrochloride], the “Mortality and cull rates” value (male Ross 308 chicks [1]; NC1 diets) was 4.18%, the “Mortality and cull rates” value (male Ross 308 chicks [1]; NC2 diets) was 6.25% and the “Mortality and cull rates” value (male Ross 308 chicks [1]; PC diets) was 4.18%. For the same molecule, the “Mortality and cull rates” value (male Ross 308 chicks [1]; main effect across diets) was 4.17%, the “Weight gain, phytase x betaine interaction mean” value (male Ross 308 chicks [2]; 1 to 37 days, across diet types) was 2202 g/bird and the “Weight gain, phytase x betaine interaction mean” value (male Ross 308 chicks [2]; 17 to 37 days, across diet types) was 1797 g/bird. The “Depression of weight gain versus non-supplemented diets” value (male Ross 308 chicks [2]; 17 to 37 days, betaine HCl alone, across diet types) was 7.70%, the Feed efficiency (male Ross 308 chicks [2]; [4]) was 1.414 and the Feed intake (male Ross 308 chicks [2]; [4]) was 556 g/bird. The Weight gain (male Ross 308 chicks [2]; [4]) was 395 g/bird, the “Weight gain, two-way interaction mean (diet type x additive)” value (male Ross 308 chicks [2]; NC1 diets, 1 to 37 days) was 2437 g/bird and the Feed efficiency (male Ross 308 chicks [2]; [5]) was 1.732. For the same molecule, the Feed intake (male Ross 308 chicks [2]; [5]) was 3478 g/bird, the Weight gain (male Ross 308 chicks [2]; [5]) was 2012 g/bird and the “Gain-corrected FCR” value (male Ross 308 chicks [2]; NC1 diets, 1 to 37 days) was 1.858 g/g. The “Increase in weight gain on addition to diet” value (male Ross 308 chicks [2]; NC1 diets, 1 to 37 days, two-way interaction) was 0.61%, the “Weight gain, two-way interaction mean (diet type x additive)” value (male Ross 308 chicks [2]; NC1 diets, 17 to 37 days) was 1737 g/bird and the Feed efficiency (male Ross 308 chicks [2]; [6]) was 1.811. For the same molecule, the Feed intake (male Ross 308 chicks [2]; [6]) was 2923 g/bird, the Weight gain (male Ross 308 chicks [2]; [6]) was 1618 g/bird and the Feed efficiency (male Ross 308 chicks [2]; [7]) was 1.394. It also gave a Feed intake (male Ross 308 chicks [2]; [7]) of 523 g/bird, a Weight gain (male Ross 308 chicks [2]; [7]) of 377 g/bird and a Feed efficiency (male Ross 308 chicks [2]; [8]) of 1.641. For the same molecule, the Feed intake (male Ross 308 chicks [2]; [8]) was 3728 g/bird, the Weight gain (male Ross 308 chicks [2]; [8]) was 2272 g/bird and the “Gain-corrected FCR” value (male Ross 308 chicks [2]; NC2 diets, 1 to 37 days) was 1.663 g/g. For the same molecule, the “Depression of weight gain on addition to diet” value (shortened to “Depression … to diet”) (male Ross 308 chicks [2]; NC2 diets, 1 to 37 days, two-way interaction) was 5.29%, the Feed efficiency (male Ross 308 chicks [2]; [9]) was 1.691 and the Feed intake (male Ross 308 chicks [2]; [9]) was 3205 g/bird. For the same molecule, the Weight gain (male Ross 308 chicks [2]; [9]) was 1896 g/bird, the “Depression … to diet” value (male Ross 308 chicks [2]; NC2 diets, 17 to 37 days, two-way interaction) was 6.27% and the Feed efficiency (male Ross 308 chicks [2]; [10]) was 1.334. The Feed intake (male Ross 308 chicks [2]; [10]) was 591 g/bird, the Weight gain (male Ross 308 chicks [2]; [10]) was 444 g/bird and the Feed efficiency (male Ross 308 chicks [2]; [11]) was 1.601. The Feed intake (male Ross 308 chicks [2]; [11]) was 3714 g/bird, the Weight gain (male Ross 308 chicks [2]; [11]) was 2321 g/bird and the “Gain-corrected FCR” value (male Ross 308 chicks [2]; PC diets, 1 to 37 days) was 1.604 g/g. For the same molecule, the “Depression … to diet” value (male Ross 308 chicks [2]; PC diets, 1 to 37 days, two-way interaction) was 4.90%, the Feed efficiency (male Ross 308 chicks [2]; [12]) was 1.665 and the Feed intake (male Ross 308 chicks [2]; [12]) was 3123 g/bird. For the same molecule, the Weight gain (male Ross 308 chicks [2]; [12]) was 1878 g/bird, the “Depression … to diet” value (male Ross 308 chicks [2]; PC diets, 17 to 37 days, two-way interaction) was 6.35% and the Feed efficiency (male Ross 308 chicks [2]; main effect across diets, 1 to 16 days post-hatch, hydrochloride) was 1.380^b. For the same molecule, the Feed efficiency (male Ross 308 chicks [2]; main effect across diets, 1 to 16 days post-hatch, listed as Betaine HCl, hydrochloride) was 1.380, the Feed intake (male Ross 308 chicks [2]; [13]) was 567 g/bird and the Weight gain (male Ross 308 chicks [2]; [13]) was 413 g/bird. The Feed efficiency (male Ross 308 chicks [2]; main effect across diets, 1 to 37 days post-hatch, hydrochloride) was 1.647, the Feed efficiency (male Ross 308 chicks [2]; main effect across diets, 1 to 37 days post-hatch, listed as betaine HCl, hydrochloride) was “no significant impact” and the Feed intake (male Ross 308 chicks [2]; [14]) was 3756 g/bird. For the same molecule, the Weight gain (male Ross 308 chicks [2]; [14]) was 2288 g/bird, the “Gain-corrected FCR” value (male Ross 308 chicks [2]; main effect across diets, 1 to 37 days, hydrochloride) was 1.663^a g/g and the “Gain-corrected FCR” value (male Ross 308 chicks [2]; main effect across diets, 1 to 37 days, listed as betaine HCl, hydrochloride) was 1.663 g/g. For the same molecule, the Feed efficiency (male Ross 308 chicks [2]; main effect across diets, 17 to 37 days post-hatch, hydrochloride) was 1.707^b, the Feed efficiency (male Ross 308 chicks [2]; main effect across diets, 17 to 37 days post-hatch, listed as betaine HCl, hydrochloride) was 1.707 and the Feed intake (male Ross 308 chicks [2]; [15]) was 3189 g/bird. The Weight gain (male Ross 308 chicks [2]; [15]) was 1875^a g/bird, the “Depression of gain-corrected FCR” value (male Ross 308 chicks [2]; main effect, 1 to 37 days) was 3.42% and the “Depression of feed efficiency” value (male Ross 308 chicks [2]; [16]) was 2.46%. For the same molecule, the “Depression of weight gain” value (male Ross 308 chicks [2]; [16]) was 4.48%, the “Depression of growth rates” value (male Ross 308 chicks [2]; main effect, entire feeding period) was 3.38% and the “Improvement in feed efficiency (FCR)” value (male Ross 308 chicks [2]; main effect, starter phase, 1 to 16 days post-hatch) was 3.77%. For the same molecule, the N excretion (male Ross 308 chicks [3]; NC1 diets) was 37.30 g/bird, the “Reduction of N excretion versus NC2 control diets” value (male Ross 308 chicks [3]; NC2 diets) was 7.03% and the N excretion (male Ross 308 chicks [3]; NC2 diets) was 42.47 g/bird. The N excretion (male Ross 308 chicks [3]; PC diets) was 40.34 g/bird, the “Reduction of N excretion” value (male Ross 308 chicks [3]; main effect) was 7.69% and the N excretion (male Ross 308 chicks [3]; main effect across diets, hydrochloride) was 38.79^a g/bird. For the same molecule, the N excretion (male Ross 308 chicks [3]; main effect across diets, listed as Betaine HCl, hydrochloride) was 38.79 g/bird and the N excretion (male Ross 308 chicks [3]; main effect across diets, listed as betaine HCl, hydrochloride) was 38.79 g/bird.

From US11974976B2, “Animal feeds and feed premixes containing betaine hydrochloride and a phytase” (Rural Chemical Industries (AUST) PTY LTD, priority 2013, dated 2024)
